BigSolDB 2.1

COC1=CC(=O)C[C@@H](C)[C@]12Oc1c(Cl)c(OC)cc(OC)c1C2=O
Conditions | solubility (mole fraction)
in 1,2-dichloroethane, 290.05 K | 0.0197
in 1,2-dichloroethane, 294.3 K | 0.0209
in 1,2-dichloroethane, 300.25 K | 0.0222
in 1,2-dichloroethane, 305.55 K | 0.0236
in 1,2-dichloroethane, 310.05 K | 0.0251
in 1,2-dichloroethane, 315.65 K | 0.0268
in 1,2-dichloroethane, 319.35 K | 0.0289
in 1,2-dichloroethane, 324.05 K | 0.0311
in 1,2-dichloroethane, 329.65 K | 0.0335
in 2-butanone, 289.65 K | 0.00826
in 2-butanone, 296.95 K | 0.00941
in 2-butanone, 302.95 K | 0.0103
in 2-butanone, 308.25 K | 0.0117
in 2-butanone, 315.05 K | 0.0128
in 2-butanone, 320.4 K | 0.0141
in 2-butanone, 325.45 K | 0.0151
in 2-butanone, 330.35 K | 0.0163
in DMAc, 296.2 K | 0.0252
in DMAc, 301.25 K | 0.0276
in DMAc, 305.75 K | 0.0303
in DMAc, 310.75 K | 0.0326
in DMAc, 314.95 K | 0.0344
in DMAc, 319.25 K | 0.0369
in DMAc, 324.75 K | 0.0395
in DMAc, 330.05 K | 0.0422
in DMAc, 336.15 K | 0.0452
in DMAc, 340.25 K | 0.0488
in DMAc, 345.75 K | 0.0518
in DMAc, 350.55 K | 0.0549
in DMAc, 354.78 K | 0.0582
in DMSO, 296.75 K | 0.0167
in DMSO, 301.15 K | 0.0186
in DMSO, 306.15 K | 0.0204
in DMSO, 310.85 K | 0.0218
in DMSO, 315.55 K | 0.0239
in DMSO, 320.55 K | 0.026
in DMSO, 326.55 K | 0.0282
in DMSO, 331.95 K | 0.0302
in DMSO, 336.75 K | 0.0324
in DMSO, 341.05 K | 0.0345
in DMSO, 346.25 K | 0.0368
in DMSO, 351.7 K | 0.0393
in DMSO, 357.6 K | 0.0415
in NMP, 295.55 K | 0.0421
in NMP, 300.65 K | 0.0451
in NMP, 305.75 K | 0.048
in NMP, 310 K | 0.0511
in NMP, 315.1 K | 0.0541
in NMP, 320.6 K | 0.057
in NMP, 325.45 K | 0.0601
in NMP, 330.45 K | 0.0631
in NMP, 335.55 K | 0.0666
in NMP, 340.35 K | 0.0704
in NMP, 345.55 K | 0.0758
in NMP, 350.35 K | 0.0795
in NMP, 355.65 K | 0.083
in acetone, 281.95 K | 0.00648
in acetone, 286.4 K | 0.0071
in acetone, 291.85 K | 0.00776
in acetone, 296.4 K | 0.00853
in acetone, 300.8 K | 0.00941
in acetone, 305.05 K | 0.0102
in acetone, 310.25 K | 0.0117
in acetone, 313.65 K | 0.0129
in acetone, 317.05 K | 0.0143
